target: T1, CFTR (Homo sapiens, UniProt P13569, DEL508-508); test: HBE Assay: Ussing chamber assay of CFTR-mediated short-circuit currents in F508del/MF-HBE cells with 1 μM Ivacaftor; assay type: cell-based; settings: range of concentrations with 1 μM Ivacaftor, 18-24 hours, 20% human serum
T1 construct: endogenous in cells; host or cells: primary human bronchial epithelial cells, F508del/MF genotype
Summary of the method: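 F508del/MF-HBE cells at air-liquid interface >14 days were incubated 18-24 h at 37° C with corrector (concentration range or fixed 10 μM) plus 1 μM Ivacaftor in 20% human serum, compounds kept throughout. Ussing chamber, Vhold=0 mV, 37° C, apical amiloride 30 μM; ISC (μA/cm^2) from peak 20 μM forskolin response to steady state after CFTR inhibitor cocktail.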

T1 sequence (P13569 with tags, fused parts or gaps DEL508-508): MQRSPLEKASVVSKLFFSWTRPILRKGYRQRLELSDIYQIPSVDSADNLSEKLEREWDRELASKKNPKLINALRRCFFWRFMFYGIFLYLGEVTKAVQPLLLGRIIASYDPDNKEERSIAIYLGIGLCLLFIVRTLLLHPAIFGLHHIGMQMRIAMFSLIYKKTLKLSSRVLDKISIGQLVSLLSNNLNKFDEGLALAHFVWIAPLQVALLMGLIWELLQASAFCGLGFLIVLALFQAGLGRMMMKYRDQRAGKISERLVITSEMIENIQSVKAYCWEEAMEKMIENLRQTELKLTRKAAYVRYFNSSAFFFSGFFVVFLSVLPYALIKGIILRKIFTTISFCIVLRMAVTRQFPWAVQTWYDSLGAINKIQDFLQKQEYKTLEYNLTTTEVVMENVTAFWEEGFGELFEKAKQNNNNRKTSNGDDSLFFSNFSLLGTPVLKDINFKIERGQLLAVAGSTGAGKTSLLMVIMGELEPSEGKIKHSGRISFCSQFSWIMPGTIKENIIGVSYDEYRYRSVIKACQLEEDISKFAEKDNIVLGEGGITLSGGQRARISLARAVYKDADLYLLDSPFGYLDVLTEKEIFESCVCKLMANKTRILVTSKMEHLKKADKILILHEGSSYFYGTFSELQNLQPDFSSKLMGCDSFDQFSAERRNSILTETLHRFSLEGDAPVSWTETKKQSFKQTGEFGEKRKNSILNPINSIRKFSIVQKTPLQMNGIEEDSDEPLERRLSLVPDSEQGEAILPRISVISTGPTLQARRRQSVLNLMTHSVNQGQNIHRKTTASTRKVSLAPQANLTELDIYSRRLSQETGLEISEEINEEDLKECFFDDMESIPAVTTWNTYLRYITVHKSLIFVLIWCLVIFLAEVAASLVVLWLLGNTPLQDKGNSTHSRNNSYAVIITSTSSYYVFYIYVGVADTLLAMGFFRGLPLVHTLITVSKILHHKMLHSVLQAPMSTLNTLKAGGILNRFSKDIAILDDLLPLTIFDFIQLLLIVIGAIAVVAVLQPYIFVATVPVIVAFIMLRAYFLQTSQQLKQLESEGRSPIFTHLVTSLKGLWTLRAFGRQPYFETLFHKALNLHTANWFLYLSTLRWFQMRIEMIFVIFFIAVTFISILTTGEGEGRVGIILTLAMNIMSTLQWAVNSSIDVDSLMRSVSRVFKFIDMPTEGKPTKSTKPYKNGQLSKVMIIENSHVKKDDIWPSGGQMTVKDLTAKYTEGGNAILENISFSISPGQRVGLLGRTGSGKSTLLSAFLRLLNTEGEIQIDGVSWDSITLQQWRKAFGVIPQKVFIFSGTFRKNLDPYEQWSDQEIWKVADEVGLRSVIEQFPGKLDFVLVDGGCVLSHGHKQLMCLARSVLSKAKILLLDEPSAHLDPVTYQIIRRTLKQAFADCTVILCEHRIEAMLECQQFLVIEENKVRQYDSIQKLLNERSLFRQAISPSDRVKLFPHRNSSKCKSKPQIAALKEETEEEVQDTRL

Row | SMILES | EC50 [nM]
1 | Cc1cccc(C)c1-c1nc2nc(c1C)OC[C@@H](CC1CC1)N(Cc1ncc(OC(C)C)cn1)C(=O)c1cccc(c1)S(=O)(=O)N2 [Compound 345] | < 1000
2 | Cc1cccc(C)c1-c1nc2nc(c1F)OC[C@@H](CC1CC1)N(Cc1ncc(OC3CCC3)cn1)C(=O)c1cccc(c1)S(=O)(=O)N2 [Compound 344] | 1000 to 3000
3 | COc1c2nc(nc1-c1c(C)cccc1C)NS(=O)(=O)c1cccc(c1)C(=O)N(Cc1ncc(OC(C)C)cn1)[C@H](CC(C)C)CO2 [Compound 348] | < 1000

Continued, values first:

Row | EC50 [nM] | SMILES
4 | < 1000 | Cc1cccc(C)c1-c1nc2nc(c1C)OC[C@@H](CC(C)(C)C)N(Cc1cnc(C3CCOCC3)cn1)C(=O)c1cccc(c1)S(=O)(=O)N2 [Compound 331]
5 | < 1000 | Cc1cccc(C)c1-c1nc2nc(c1F)OC[C@@H](CC(C)(C)C)N(Cc1ncc(OC3CCC3)cn1)C(=O)c1cccc(c1)S(=O)(=O)N2 [Compound 336]

same assay, conditions: single fixed concentration of 10 μM with 1 μM Ivacaftor, 18-24 hours, 20% human serum

Row | HBE Activity at 10 μM (%) | SMILES
6 | +++ (+++ is >60%) | Cc1cccc(CC2COC2)c1-c1nc2nc(c1C)OC[C@@H](CC(C)(C)C)N(Cc1ncc(OC(C)C)cn1)C(=O)c1cccc(c1)S(=O)(=O)N2 [Compound 347]
7 | +++ (+++ is >60%) | Cc1cccc(C)c1-c1nc2nc(c1F)OC[C@@H](CC1CCC1)N(Cc1ncc(OC(C)C)cn1)C(=O)c1cccc(c1)S(=O)(=O)N2 [Compound 354]

same assay, conditions: single fixed concentration of 10 μM, with 1 μM Ivacaftor, 20% human serum

Row | SMILES | HBE Activity at 10 μM
8 | Cc1cccc(CC2CCCCC2)c1-c1nc2nc(c1C(F)(F)F)OC[C@@H](CC(C)(C)C)N(Cc1ncc(N3CCOCC3)cn1)C(=O)c1cccc(c1)S(=O)(=O)N2 (atropisomer, axis not shown) [Compound 245] | ++ (++ is 30-60%)
9 | Cc1cccc(C)c1-c1nc2nc(c1C)OC[C@@H](C(C)C)N(Cc1ncc(OC(C)C)cn1)C(=O)c1cccc(c1)S(=O)(=O)N2 [Compound 197] | +++ (+++ is >600%)
10 | Cc1cccc(CC(C)C)c1-c1nc2nc(c1C)OC[C@@H](C(C)C)N(Cc1nccc(N(C)C(C)C)n1)C(=O)c1cccc(c1)S(=O)(=O)N2 (atropisomer, axis not shown) [Compound 232] | +++ (+++ is >600%)
11 | Cc1cccc(CC2CCCC2)c1-c1nc2nc(c1C)OC[C@@H](CC(C)(C)C)N(Cc1nccc(N(C)C(C)C)n1)C(=O)c1cccc(c1)S(=O)(=O)N2 (atropisomer, axis not shown) [Compound 265] | +++ (+++ is >600%)

The next lines start with the values.

Row | HBE Activity at 10 μM | SMILES
12 | +++ (+++ is >600%) | Cc1cccc(CC(C)C)c1-c1nc2nc(c1C)OC[C@@H](CC(C)C)N(Cc1cnc(C3CCOCC3)cn1)C(=O)c1cccc(c1)S(=O)(=O)N2 (atropisomer, axis not shown) [Compound 315]
13 | +++ (+++ is >600%) | Cc1cccc(C(C)C)c1-c1nc2nc(c1C)OC[C@@H](CC(C)(C)C)N(Cc1cnc(C3CCOCC3)cn1)C(=O)c1cccc(c1)S(=O)(=O)N2 (atropisomer, axis not shown) [Compound 318]

same assay, conditions: with 1 μM Ivacaftor, 18-24 hours, 20% human serum

Row | SMILES | EC50 [nM] | HBE Max Activity
14 | Cc1cccc(CC(C)C)c1-c1nc2nc(c1C)OC[C@@H](CC(C)(C)C)N(Cc1ncc(N3CCC(C)(C)C3)cn1)C(=O)c1cccc(c1)S(=O)(=O)N2 (atropisomer, axis not shown) [Compound 243] | 1000 to 3000 | +++ (+++ is >600%)
15 | Cc1cccc(CC(C)C)c1-c1nc2nc(c1C(F)(F)F)OC[C@@H](CC(C)(C)C)N(Cc1ncc(N3CCOCC3)cn1)C(=O)c1cccc(c1)S(=O)(=O)N2 (single isomer, unassigned) [Compound 212] | < 1000 | +++ (+++ is >600%)
16 | COCCN(C)c1cnc(CN2C(=O)c3cccc(c3)S(=O)(=O)Nc3nc(c(C)c(-c4c(C)cccc4CC(C)C)n3)OC[C@H]2CC(C)(C)C)nc1 (atropisomer, axis not shown) [Compound 294] | < 1000 | +++ (+++ is >600%)
17 | Cc1cccc(CC(C)C)c1-c1nc2nc(c1C)OC[C@@H](CC(C)(C)C)N(Cc1cccc(N(C)C(C)C)n1)C(=O)c1cccc(c1)S(=O)(=O)N2 (atropisomer, axis not shown) [Compound 235] | < 1000 | +++ (+++ is >600%)
18 | Cc1cccc(CC(C)C)c1-c1nc2nc(c1C)OC[C@@H](CC(C)C)N(Cc1cccc(N3CCC[C@H]3C)n1)C(=O)c1cccc(c1)S(=O)(=O)N2 (atropisomer, axis not shown) [Compound 237] | < 1000 | +++ (+++ is >600%)
19 | Cc1cccc(CC2CCCCC2)c1-c1nc2nc(c1C)OC[C@@H](CC(C)(C)C)N(Cc1cccc(N(C(C)C)C(C)C)n1)C(=O)c1cccc(c1)S(=O)(=O)N2 (atropisomer, axis not shown) [Compound 256] | < 1000 | +++ (+++ is >600%)
20 | Cc1cccc(C)c1-c1nc2nc(c1C)OC[C@@H](CC(C)C)N(Cc1ncc(N3CCC(C)(C)CC3)cn1)C(=O)c1cccc(c1)S(=O)(=O)N2 [Compound 198] | < 1000 | +++ (+++ is >600%)
21 | Cc1cccc(CC2CCCCC2)c1-c1nc2nc(c1C)OC[C@@H](CC(C)(C)C)N(Cc1nccc(N(C)C(C)C)n1)C(=O)c1cccc(c1)S(=O)(=O)N2 (atropisomer, axis not shown) [Compound 262] | < 1000 | +++ (+++ is >600%)
22 | Cc1cccc(CC(C)C)c1-c1nc2nc(c1C)OC[C@@H](CC(C)(C)C)N(Cc1ncc(OC(C)C)cn1)C(=O)c1cccc(c1)S(=O)(=O)N2 (atropisomer, axis not shown) [Compound 233] | < 1000 | +++ (+++ is >600%)
23 | Cc1cccc(CC2CCCCC2)c1-c1nc2nc(c1C)OC[C@@H](CC(C)(C)C)NC(=O)c1cccc(c1)S(=O)(=O)N2 (atropisomer, axis not shown) [Compound 311] | < 1000 | +++ (+++ is >600%)
24 | Cc1cccc(CC2CCCCC2)c1-c1nc2nc(c1C)OC[C@@H](CC(C)(C)C)N(Cc1ncc(N(C)CC(C)(C)C)cn1)C(=O)c1cccc(c1)S(=O)(=O)N2 (atropisomer, axis not shown) [Compound 282] | 1000 to 3000 | +++ (+++ is >600%)
25 | Cc1cccc(CC(C)C)c1-c1nc2nc(c1C)OC[C@@H](CC(C)(C)C)N(Cc1ncc(N(C)CC(C)(C)C)cn1)C(=O)c1cccc(c1)S(=O)(=O)N2 (single isomer, unassigned) [Compound 211] | < 1000 | +++ (+++ is >600%)
26 | Cc1cccc(CC2CCCCC2)c1-c1nc2nc(c1C)OC[C@@H](CC(C)(C)C)NC(=O)c1cccc(c1)S(=O)(=O)N2 (atropisomer, axis not shown) [Compound 312] | < 1000 | ++ (++ is 30-60%)

More lines, now with the values ahead:

Row | EC50 [nM] | HBE Max Activity | SMILES
27 | < 1000 | +++ (+++ is >600%) | CCc1cccc(C)c1-c1nc2nc(c1C)OC[C@@H](CC(C)(C)C)N(Cc1ccc(N3CCOCC3)cn1)C(=O)c1cccc(c1)S(=O)(=O)N2 (atropisomer, axis not shown) [Compound 286]
28 | < 1000 | +++ (+++ is >600%) | Cc1cccc(CC2CCCCC2)c1-c1nc2nc(c1C)OC[C@@H](CC(C)(C)C)N(Cc1ncccc1N1CCOCC1)C(=O)c1cccc(c1)S(=O)(=O)N2 (atropisomer, axis not shown) [Compound 309]
29 | < 1000 | +++ (+++ is >600%) | Cc1cccc(CC2CCCCC2)c1-c1nc2nc(c1C)OC[C@@H](CC(C)(C)C)N(Cc1ncc(N3CCC(C)(C)CC3)cn1)C(=O)c1cccc(c1)S(=O)(=O)N2 (atropisomer, axis not shown) [Compound 260]
30 | < 1000 | +++ (+++ is >600%) | Cc1cccc(CC(C)C)c1-c1nc2nc(c1C)OC[C@@H](CC(C)(C)C)N(Cc1ccc(N3CCOCC3)cn1)C(=O)c1cccc(c1)S(=O)(=O)N2 (atropisomer, axis not shown) [Compound 298]
31 | < 1000 | +++ (+++ is >600%) | Cc1ccnc(CN2C(=O)c3cccc(c3)S(=O)(=O)Nc3nc(c(C)c(-c4c(C)cccc4CC4CCCCC4)n3)OC[C@H]2CC(C)(C)C)n1 (atropisomer, axis not shown) [Compound 258]
32 | < 1000 | +++ (+++ is >600%) | Cc1cccc(C(C)C)c1-c1nc2nc(c1C)OC[C@@H](CC(C)(C)C)N(Cc1ccc(N3CCOCC3)cn1)C(=O)c1cccc(c1)S(=O)(=O)N2 (atropisomer, axis not shown) [Compound 299]
33 | < 1000 | +++ (+++ is >600%) | COCCN(C)c1ccc(CN2C(=O)c3cccc(c3)S(=O)(=O)Nc3nc(c(C)c(-c4c(C)cccc4CC4CCCCC4)n3)OC[C@H]2CC(C)(C)C)nc1 (atropisomer, axis not shown) [Compound 290]
34 | < 1000 | +++ (+++ is >600%) | Cc1cccc(C2CC2)c1-c1nc2nc(c1C)OC[C@@H](CC(C)(C)C)N(Cc1cnc(C3CCOCC3)cn1)C(=O)c1cccc(c1)S(=O)(=O)N2 (atropisomer, axis not shown) [Compound 320]
35 | < 1000 | +++ (+++ is >600%) | Cc1cccc(CC(C)C)c1-c1nc2nc(c1C)OC[C@@H](CC(C)C)N(Cc1cnc(C3CCOCC3)cn1)C(=O)c1cccc(c1)S(=O)(=O)N2 (atropisomer, axis not shown) [Compound 314]
36 | < 1000 | +++ (+++ is >600%) | Cc1cccc(CC2CCCCC2)c1-c1nc2nc(c1C)OC[C@@H](CC(C)(C)C)N(Cc1nccc(C(C)C)n1)C(=O)c1cccc(c1)S(=O)(=O)N2 [Compound 250]
37 | < 1000 | +++ (+++ is >600%) | Cc1cccc(CC2CCCC2)c1-c1nc2nc(c1C)OC[C@@H](CC(C)(C)C)N(Cc1ncc(N3CCOCC3)cn1)C(=O)c1cccc(c1)S(=O)(=O)N2 (atropisomer, axis not shown) [Compound 281]

same assay, conditions: with 1 μM Ivacaftor, 18-24 hours, 20% human serum, compared to known Vertex corrector with 18 μM Tezacaftor and 1 μM Ivacaftor, read-out: HBE Max activity (%)

Row | SMILES | Emax [%]
38 | Cc1cccc(C)c1-c1nc2nc(c1C)OC[C@@H](CC1CC1)N(Cc1ncc(OC(C)C)cn1)C(=O)c1cccc(c1)S(=O)(=O)N2 [Compound 345] | > 60
39 | Cc1cccc(C)c1-c1nc2nc(c1F)OC[C@@H](CC1CC1)N(Cc1ncc(OC3CCC3)cn1)C(=O)c1cccc(c1)S(=O)(=O)N2 [Compound 344] | > 60
40 | COc1c2nc(nc1-c1c(C)cccc1C)NS(=O)(=O)c1cccc(c1)C(=O)N(Cc1ncc(OC(C)C)cn1)[C@H](CC(C)C)CO2 [Compound 348] | > 60

Now from value to compound:

Row | Emax [%] | SMILES
41 | > 60 | Cc1cccc(C)c1-c1nc2nc(c1C)OC[C@@H](CC(C)(C)C)N(Cc1cnc(C3CCOCC3)cn1)C(=O)c1cccc(c1)S(=O)(=O)N2 [Compound 331]
42 | > 60 | Cc1cccc(C)c1-c1nc2nc(c1F)OC[C@@H](CC(C)(C)C)N(Cc1ncc(OC3CCC3)cn1)C(=O)c1cccc(c1)S(=O)(=O)N2 [Compound 336]
